Results taken from patent US4218566A, “11-(2-Hydroxyethylthio) prostenoic acid E and F series derivatives” (American Cyanamid Company, priority 1978, dated 1980).
Where two headings read alike, the source gives them in different places.

Tests used:
Type in all cases: in vivo
[1] = test system: bronchospasms elicited by histamine; experiment: bronchodilator activity, (modified) guinea pig Konzett procedure, histamine-induced bronchospasm; details: Cavia porcellus, iv
Description: (§1) Bronchodilator activity is determined in guinea pigs against bronchospasms elicited by intravenous injections of 5-hydroxytryptamine, histamine of acetylcholine by the Konzett procedure. [See J. Lulling, P. Lievens, F. El Sayed and J. Prignot, Arzneimittel-Forschung, 18, 995 (1968)].
(§2) In the Table I which follows, bronchodilator activity for representative compounds of this invention against one or more of the three spasmogenic agents is expressed as an ED50 determined from the results obtained with three logarithemic cumulative intravenous doses.
(§3) The compounds dl-methyl ester of 11-deoxy-11α-(2-hydroxyethylthio)-15α-prostaglandin E2 (hereinafter called Compound I) and dl-methyl ester of 11-deoxy-11α-(2-hydroxyethoxy)-15α-prostaglandin E2 (hereinafter called Compound II) were submitted for testing in the modified Konzett procedure [J. Lulling, P. Lievens, F. El Sayed and J. Prignot, Arzneimittel-Forschung, 18, 995 (1968)].
(§4) The Modified Guinea Pig Konzett Assay measures the protective effects of experimental compounds against induced bronchospasms in guinea pigs.
(§5) Guinea pigs of either sex, weighing 300 to 500 g. are anesthetized by intraperitoneal injection of urethane at 1.5 g./kg. and curarized by intravenous injection of gallamine at 4 mg./kg. They are artificially ventilated through a tracheal cannula. Respiratory volume is adjusted according to the weight of the animal and the rate of the pump, in such a way as to obtain an insufflation pressure of 15-30 cm. of water.
(§6) The two jugular veins are catheterized, the first one being used for curarization and administration of the test compounds, the other one is used for the injection of the spasmogenic agent. Injections are made at selected speeds with a perfusion pump. The intratracheal pressure is measured with a transducer connected to the tracheal cannula and recorded on a polygraph.
(§7) Bronchial spasms are produced by intravenous injection of acetylcholine hydrochloride, histamine dihydrochloride or 5-hydroxy-tryptamine creatinine sulfate. The speed of injection of the spasmogenic solution and its concentration are chosen to give a dose (kept constant throughout the test) which is able to produce a consistant increase in the tracheal pressure. The injections are repeated every 5 minutes throughout the entire test by means of a program controlled automatic infusion syringe. When three successive control bronchoconstrictions of similar intensity are obtained, the animal is considered to be ready for the assay and receives the first dose of the test compound approximately two minutes later.
(§8) The compound being tested is suspended in 15% ethanol and injected through the jugular vein. The injection is repeated twice per animal at 15 minute intervals, so that three doses, in logarithmic progression, are assayed. Three spasms are recorded for each dose. The "bronchodilating" activity of each compound is assayed in at least four guinea pigs for each of the three spasmogenic substances. The amplitude of the three spasms (i.e. the difference between the maximum total tracheal pressure during the spasms and the normal insufflation pressure without spasm) following the administration of the drug are expressed in cm. of water.
(§9) When the average percent of variation (treated vs. control) of the first spasm following any dose of the compound reaches at least -50%, a regression line of the percent of variation versus the dose is computed in a semi-logarithmic system. The ED50 (dose producing a -50% variation) is then calculated. The same determination is made for the second and third spasm following the administration of a dose of the test compound if at some dose the variation percent reaches -50%.

[2] = test system: bronchospasms elicited by acetylcholine; experiment: bronchodilator activity, (modified) guinea pig Konzett procedure, acetylcholine-induced bronchospasm; details: Cavia porcellus, iv
Description: as §1, §2, §3, §4, §5, §6, §7, §8, §9

[3] = test system: bronchospasms elicited by 5-hydroxytryptamine; experiment: bronchodilator activity, (modified) guinea pig Konzett procedure, 5-hydroxytryptamine-induced bronchospasm; details: Cavia porcellus, iv
Description: as §1, §2, §3, §4, §5, §6, §7, §8, §9

[4] = test system: bronchospasms; experiment: bronchodilator activity overall, guinea pig Konzett assay; details: for Potency (Range 0-4): score
Description: The natural PGE1, PGE2 and PGE3 compounds are potent in causing multiple biological responses, even at low doses. As a bronchodilator, the natural prostaglandins have an inconveniently short duration of activity.
as §1, §2, §3, §4, §5, §6, §7, §8, §9

[5] = histamine, first line of values for the compound, read-out: ED50 HIST.
[6] = histamine, second line of values for the compound, read-out: ED50 HIST.
[7] = acetylcholine, first line of values for the compound, read-out: ED50 ACH.
[8] = acetylcholine, second line of values for the compound, read-out: ED50 ACH.
[9] = 5-HT, first line of values for the compound, read-out: ED50 5-HT
[10] = 5-HT, second line of values for the compound, read-out: ED50 5-HT
[11] = spasm 1, read-out: ED50 vs. Histamine Dihydrochloride
[12] = spasm 2, read-out: ED50 vs. Histamine Dihydrochloride
[13] = spasm 3, read-out: ED50 vs. Histamine Dihydrochloride
[14] = spasm 1, read-out: ED50 vs. Acetylcholine Hydrochloride
[15] = spasm 2, read-out: ED50 vs. Acetylcholine Hydrochloride
[16] = spasm 1, read-out: ED50 vs. 5-Hydroxytryptamine Creatinine Sulfate
[17] = spasm 2, read-out: ED50 vs. 5-Hydroxytryptamine Creatinine Sulfate
[18] = spasm 3, read-out: ED50 vs. 5-Hydroxytryptamine Creatinine Sulfate
[19] = 5-HT, third line of values for the compound, read-out: ED50 5-HT

Row | SMILES | ED50 [1, 5] | ED50 [1, 6] | ED50 [2, 7] | ED50 [2, 8] | ED50 [3, 9] | Potency (Range 0-4) [4] | ED50 [3, 10] | ED50 [1, 11] | ED50 [1, 12] | ED50 [1, 13] | ED50 [2, 14] | ED50 [2, 15] | ED50 [3, 16] | ED50 [3, 17] | ED50 [3, 18] | bronchodilator potency of Compound I compared with Compound II, statistical analysis ([4]; Compound I vs Compound II) | ED50 [3, 19] | ED50 ([1]; histamine, third line of values for the compound, read-out: ED50 HIST.) | ED50 ([2]; acetylcholine, third line of values for the compound, read-out: ED50 ACH.)
1 | CCCCC[C@H](O)/C=C/[C@H]1C(SCCO)CC(=O)[C@@H]1C/C=C\CCCC(=O)OC (stereo partly drawn) [Example 223, Methyl Nat. 15α-hydroxy-9-oxo-11α/β(2-hydroxyethylthio)-5-cis,13-trans-prostadienoate] | 0.00424 mg/kg | 0.0442 mg/kg | 0.0275 mg/kg | 0.391 mg/kg | 0.0088 mg/kg | 4 | – | – | – | – | – | – | – | – | – | – | – | – | –
2 | CCCCC[C@H](O)/C=C/[C@H]1[C@H](SCCO)CC(=O)[C@@H]1C/C=C\CCCC(=O)OC [Methyl Nat.-11α-(2-hydroxyethylthio)-15α-hydroxy-9-oxo-5-cis,13-trans-prostadienoate] | 0.00487 mg/kg | – | 0.0111 mg/kg | – | 0.0059 mg/kg | 4 | 0.035 mg/kg | – | – | – | – | – | – | – | – | – | – | – | –
3 | CCCCC[C@H](O)/C=C/[C@H]1[C@@H](SCCO)CC(=O)[C@@H]1C/C=C\CCCC(=O)OC [methyl nat.-11β(2-hydroxyethylthio)-15α-hydroxy-9-oxo-5-cis,13-trans prostadienoate] | 0.0455 mg/kg | – | 0.0628 mg/kg | 0.671 mg/kg | 0.06 mg/kg | 4 | – | – | – | – | – | – | – | – | – | – | – | – | –
4 | CCCCC[C@H](O)/C=C/[C@H]1[C@H](SCCO)CC(=O)[C@@H]1C/C=C\CCCC(=O)OC (relative stereo) [Compound I, dl-methyl ester of 11-deoxy-11α-(2-hydroxyethylthio)-15α-prostaglandin E2] | – | – | – | – | – | – | – | 0.0157 mg/kg | 0.0671 mg/kg | 0.452 mg/kg | 0.033 mg/kg | 0.289 mg/kg | 0.0176 mg/kg | 0.0629 mg/kg | 0.153 mg/kg | significantly more potent than Compound II as a bronchodilator | – | – | –
5 | CCCCC(C)(O)C/C=C/C1C(SCCO)CC(=O)C1C/C=C\CCCC(=O)O (stereo not drawn) [Example 225, 11α/β-(2-hydroxyethylthio)-16-hydroxy-16-methyl-9-oxo-5-cis,13-trans-prostadienoic acid] | 0.02 mg/kg | 0.108 mg/kg | 0.034 mg/kg | – | 0.017 mg/kg | 3 | 0.077 mg/kg | – | – | – | – | – | – | – | – | – | 0.257 mg/kg | – | –
6 | CCCCC[C@H](O)/C=C/[C@H]1C(SCCO)CC(=O)[C@@H]1CCCCCCC(=O)O (stereo partly drawn) [Example 228, Nat. 11α/β-(2-hydroxyethylthio)-15α-hydroxy-9-oxo-13-transprostenoic acid] | 0.0047 mg/kg | 0.036 mg/kg | 0.011 mg/kg | 0.061 mg/kg | 0.0055 mg/kg | 4 | 0.034 mg/kg | – | – | – | – | – | – | – | – | – | 0.078 mg/kg | 0.071 mg/kg | 0.221 mg/kg
7 | CCCCC[C@H](O)/C=C/[C@H]1[C@H](OCCO)CC(=O)[C@@H]1C/C=C\CCCC(=O)OC (relative stereo) [Compound II, dl-methyl ester of 11-deoxy-11α-(2-hydroxyethoxy)-15α-prostaglandin E2, reference compound] | – | – | – | – | – | – | – | 0.152 mg/kg | 0.707 mg/kg | 1.46 mg/kg | 0.506 mg/kg | 3.31 mg/kg | 0.119 mg/kg | 0.495 mg/kg | 1.28 mg/kg | – | – | – | –
8 | CCCCC(O)C/C=C/C1C(SCCO)CC(=O)C1CCCCCCC(=O)O (stereo not drawn) [Example 226, 11α/β(2-hydroxyethylthio)-16-hydroxy-9-oxo-13-trans-prostenoic acid] | 0.0195 mg/kg | 0.15 mg/kg | 0.053 mg/kg | – | 0.019 mg/kg | 3 | 0.082 mg/kg | – | – | – | – | – | – | – | – | – | 0.288 mg/kg | – | –
